This is an account of results in US7846910B2, “Pharmaceutical composition, composition for screening therapeutics preventing and treating beta amyloid accumulation in brain comprising GCP II (glutamate carboxypeptidase II) as an active ingredient and method for screening using the same” (Korea Center for Disease Control and Prevention, priority 2005, dated 2010).

One data set deals with endogenous Aβ42. Nature of the data set: Degradation of endogenous Aβ from swAPP stable HEK293 cells by rGCP-II (ELISA). As to conditions: #2 colony of swAPP stable cells, 0, 0.5, 2.5 and 10[…]/μL of rGCP-II. It is filed as biochemical, human. The source says:
To investigate whether human GCP-II can actually degrade endogenous Aβ a cell line stably expressing ^swAPP (Swedish mutant APP) gene involved in the over-production of Aβ was constructed. For this construction, ^swAPP was introduced into HEK293 cells, followed by selection with G418. The recovered medium was reacted with rGCP-II protein and then Aβ remaining unreacted in the medium was quantified by ELISA (FIG. 8).
The concentration of Aβ42 and the expression level of APP were used as standards for the selection of ^swAPP stable cell colonies. […] As a result, the level of endogenous Aβ42 was decreased. From the above result, it was confirmed that rGCP-II is able to degrade physiologically generated (endogenous) Aβ alike (FIG. 8B).
A general note: In an ELISA, binding on a coated surface is turned into a signal by an enzyme label.

For data set [1], the system named is soluble Aβ40 and insoluble Aβ40. Briefly: Degradation of soluble and insoluble Aβ from cerebral cortex by rGCP-II. It is filed as biochemical. On the procedure:
The cerebral cortex was homogenized in 50 mM Tris-HCl (TBS) containing protease inhibitor cocktail (pH 7.6), followed by centrifugation at 4° C. with 100,000 g for 40 minutes. The supernatant was defined as a soluble fragment. The pellet was sonicated in 6 M guanidine-HCl solution containing protease inhibitor cocktail, which was defined as an insoluble fragment. The concentrations of each soluble Aβ and insoluble Aβ were measured.
The soluble Aβ or insoluble Aβ was co-cultured with rGCP-II.

For data set [2], the system named is Aβ monomer and oligomer (multimer). Nature of the data set: Degradation of Aβ monomer and multimer by rGCP-II (Western blotting). Type of data set: biochemical. To be noted: Aβ matured for 7 days, reacted 20 hours, increasing GCP-II concentration. How it is done:
Western blotting was performed using anti-Aβ antibody (6E10) more than 5 times (FIG. 9A) and the results were quantified by an image program (Image J program, NIH, USA) (FIG. 9B).
(In western blotting, separated proteins are transferred to a membrane and probed.)

Data set [3] is described as follows: Enzyme activity (Km) of purified rGCP-II, [3H] glutamate release. It is filed as biochemical. As to conditions: 0.002-2 μM substrate, 37° C. On the procedure: The enzyme activity of rGCP-II was saturated from 1.0 μM of N-acetyl-L-aspartyl-L-[3,4-^3H] and as a result, the Km value of rGCP-II was determined to be 0.5 μM.
Another data set deals with T1, GCP-II (Mus musculus, UniProt O35409).
T1 construct: the cell membrane layer existed GCP-II was isolated from the mouse brain tissue; from tissue; host or cells: Brain membrane fraction of wild-type and APP Swedish/presenilin delta-9 transgenic mice
Nature of the data set: GCP-II activity in brain tissue of mice treated with GCP-II inhibitor (3H-NAAG). It is filed as in vivo. To be noted: 10 mg/kg twice a week, 30 days. On the procedure:
(§1) To conform whether GCP-II can actually degrade over-expressing Aβ in vivo, the present inventors investigated Aβ degradation capacity by GCP-II inhibitor in a transgenic mouse over-expressing these Aβ. Concretely, after prepared genetically Aβover-expressing dementia model mouse (APP Swdish/presenilin delta 9 deltion, 12 weeks, The Hackson Laboratory, USA), injected into visceral cavity twice in a week, dosage of 10 mg/kg, 30 days. At this time, PBS used as a control. After finally injected GCP-II inhibitor, cerebral cortex, hippocampus and cerebellum in mouse brain was dissected and measured their weight respectively using microblance. And then, the above tissues were incubated in 6 M guanidine-hydrochrolide solution, room temperature, 4 hours and obtained supernatant by centrifugation after added iced PBS at 1/10 ratio. […] Then treated HRP (horseradish peroxidase) tagging secondly actibody, the above reactant was measured absorbance at 450 nm wavelength after treated stained using TMB (tetramethylbensidine). To conform whether GCP-II inhibitor was treated correctly, a part of the above mouse brain tissue were dissected and detected GCP-II activaty. […] In this manner, isolated sample were measured GCP-II activity using isotope meter.

In the next data set the test system is Aβ40 and Aβ42. Briefly: Aβ yield in cerebral cortex of mice treated with GCP-II inhibitor (ELISA). To be noted: transgenic mouse (APP Swedish/presenilin delta 9), 10 mg/kg into visceral cavity twice a week, 30 days, PBS control. It is filed as in vivo. On the procedure:
as §1

The subject of the next data set is synthetic Aβ40 or Aβ42. Briefly: Aβ degradation in HEK293 cells over-expressing GCP-II (ELISA of remaining Aβ in medium). It is filed as cell-based, human. On the procedure:
To investigate the Aβ degradation by GCP-II, synthetic Aβ40 (FIG. 1A) or Aβ42 (FIG. 1B) was added to the cell culture solution containing HEK293 cells over-expressing GCP-II and HEK293 cells over-expressing NEP and IDE which are known as Aβ degrading enzymes. After reaction, the level of Aβ in the medium was measured by ELISA.
To measure the level of Aβ degradation by GCP-II, 2 ng/uL of synthetic Aβ40 or Aβ42 (Biosource international INC.) was added to HEK293 cell culture medium. Twenty hours later, the remaining Aβ in the medium was quantified by ELISA kit (Biosource international INC.).
HEK293 cells (human embryonic kidney cells) over-expressing GCP-II were temporarily transfected with GCP-II expression vector ‘pHA-GCPII’ or ‘pmyc-GCPII’ prepared in the above Example <1-1>, by using a transfection reagent (Lipofectamine Plus™ Reagent, Invitrogen, USA). The HEK293 cells with the temporary insertion of GCP-II were cultured in DMEM (Dulbecco's modified Eagle's medium) supplemented with 10% FBS (fetal bovine serum), 100 IU/ml of penicillin and 100[…]/ml of streptomycin. Cell lysate was obtained from the HEK293 cells by using RIPA buffer containing a protease inhibitor (aprotinin, leupeptin or phenylmethyl sulfonyl fluoride), and GCP-II protein was separated with 8% SDS-PAGE to examine the expression of GCP-II.
HEK293 cells transfected with NEP and IDE plasmids were used as a positive control and the cells transfected with mock vector were used as a negative control. The expressions of human GCP-II and NEP in the transfected HEK293 cells were investigated by Western blot analysis using anti-GCP-II antibody (MAB544B, Maine Biotechnology) or anti-NEP antibody (L-CD10-270, Novocastra) respectively (FIG. 1C).

In a further data set the test system is amylin. Briefly: GCP-II substrate specificity, MALDI-TOF molecular weight analysis. It is filed as biochemical. To be noted: 37° C. for 15 hours. On the procedure:
(§2) To investigate whether GCP-II degrades Aβ specifically, GCP-II was reacted with amylin and ACTH (adrenocorticotropic hormone) or insulin β-chain at 37° C. for 15 hours, followed by measuring the molecular weight of each sample with a molecular weight analyzer (FIG. 7).

A further data set has as its system insulin β-chain. Described as above. It is filed as biochemical. To be noted: 37° C. for 15 hours. On the procedure:
as §2

Data set [4] has as its system ACTH (adrenocorticotropic hormone). The data set is described as above. Type of data set: biochemical. To be noted: 37° C. for 15 hours. How it is done:
as §2

In another data set the test system is Aβ40. Briefly: Aβ degradation in primary cortical cells over-expressing GCP-II by lenti-virus (ELISA). As to conditions: infected by 10, 20 and 50 MOI for three days, Aβ40 added for 20 hours. It is filed as cell-based, rat. The source says: To investigate whether Aβ degradation effect of GCP-II was still observed in cortical cells or not, GCP-II was over-expressed in primary cortical cells by using lenti-virus, and then the level of Aβ degradation was investigated.
To investigate whether the expression of GCP-II can degrade Aβ in cortical cells, GCP-II was over-expressed in the primary cortical cells by using lenti-virus, followed by investigation of Aβ degradation (FIG. 2). The primary cortical cells were separated and cultured from E16 rats (Sprague-Dawley rats). To prevent non-neuronal cells, which took less than 10% in the culture cells, from spreading, the cells were transferred and further cultured in a 24 well plate (1×10^5 cells/well) containing 5-fluoro-2-deoxyuridine from the 3-6 days after the first culture. To prepare lenti-virus expressing GCP-II, GCP-II was inserted into pLentiH1.2 vector (named ‘pLentiH1.2-GCPII’, which was then introduced into 293T cells along with pLentiH1.2-GCP-II and packaging construct and envelope construct. Forty eight hours later, the concentration of the virus released in the medium was measured.
The primary cortical cells were infected with Lenti-GCP-II for three days, to which Aβ40 was added for 20 hours. Then, the level of Aβ remaining in the medium was measured by ELISA as explained in Example 1. […]

Setting [5] is: GCP-II over-expressing HEK293 cells, compared with mock vector.

T1 sequence (O35409 whole entry): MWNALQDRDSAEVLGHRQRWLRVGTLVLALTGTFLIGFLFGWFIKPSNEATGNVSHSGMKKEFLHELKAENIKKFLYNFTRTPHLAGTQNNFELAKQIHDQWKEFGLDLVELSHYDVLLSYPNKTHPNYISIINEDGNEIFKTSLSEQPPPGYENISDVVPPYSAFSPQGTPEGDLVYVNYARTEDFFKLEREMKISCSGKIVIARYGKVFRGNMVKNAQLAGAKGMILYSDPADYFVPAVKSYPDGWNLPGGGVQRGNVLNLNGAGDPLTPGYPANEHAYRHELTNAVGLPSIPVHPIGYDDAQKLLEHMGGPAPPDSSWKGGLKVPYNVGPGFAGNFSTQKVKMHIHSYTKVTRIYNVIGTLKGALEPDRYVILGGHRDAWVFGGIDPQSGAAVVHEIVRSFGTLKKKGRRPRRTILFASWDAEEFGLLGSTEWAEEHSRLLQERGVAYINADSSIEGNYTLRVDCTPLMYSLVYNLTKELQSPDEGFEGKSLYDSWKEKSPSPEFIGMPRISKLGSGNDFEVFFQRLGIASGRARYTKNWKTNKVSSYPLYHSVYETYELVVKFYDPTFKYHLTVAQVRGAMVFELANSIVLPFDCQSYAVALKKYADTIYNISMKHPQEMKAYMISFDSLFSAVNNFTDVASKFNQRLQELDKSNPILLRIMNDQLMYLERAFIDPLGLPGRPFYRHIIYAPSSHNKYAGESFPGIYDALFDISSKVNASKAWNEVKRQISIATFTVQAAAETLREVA

For orientation: Km means the concentration of substrate that gives half-maximal velocity. In the case of “rGCP-II: recombinant GCP-II protein expressed in insect cells (Sf21) with baculovirus vector and purified on a Ni-chelating column”, the “level of endogenous Aβ42” value in the data set with endogenous Aβ42 is “decreased”. The “reduction of insoluble Aβ40” value in data set [1] (insoluble fragment of cerebral cortex co-cultured with rGCP-II) was found to be 35%. In data set [1] (soluble fragment of cerebral cortex co-cultured with rGCP-II), the “reduction of soluble Aβ40” value is 20%. The “degradation of Aβ oligomer versus monomer” value in data set [2] is listed as “reduced faster than Aβ monomer”. Moreover, the Km in data set [3] worked out at 0.5 µM.

`O=C(O)CCC(CP(=O)(O)O)C(=O)O` (stereo not shown) [2-PMPA]: the “reduction of GCP-II activity in brain” value at GCP-II (transgenic mouse) is “about 30%”; at GCP-II (wild type mouse) it was “about 50%”. The “increase of yield of Aβ42 in cerebral cortex versus control” value with Aβ40 and Aβ42 was “about 30%”. Besides, the “yield of Aβ40 in cerebral cortex versus control” value in the data set on Aβ40 and Aβ42 was “no significantly difference”.

In the case of “GCP-II: transmembrane metalloproteinase glutamate carboxypeptidase II (SEQ. ID. NO: 2), over-expressed in cells from pHA-GCPII or pMyc-GCPII”, in the data set on synthetic Aβ40 or Aβ42 (setting [5]), the “decrease of Aβ40 level in cell culture medium” value stood at 30% and the “decrease of Aβ42 level in cell culture medium” value amounted to 30%. Moreover, the “level of Aβ remaining in the culture medium” value in the data set on synthetic Aβ40 or Aβ42 (HEK293 cells expressing GCP-II, 20 hours after addition of Aβ, compared with cells transfected with mock vector) is 60±5%. For the same compound, the “degradation of amylin (MALDI-TOF peaks)” value in the data set on amylin is “two peaks at 1500 and 2000”. In the data set with insulin β-chain, the “degradation of insulin β-chain” value is “not degraded”. The “degradation of ACTH” value in data set [4] is recorded as “not degraded”. In addition, in the data set with Aβ40, the “Aβ reduction in primary cortical cells” value is on record as “more than 90%”.
